Experimental data from patent publication US10016382B2, “Method for decreasing skeletal muscle damage and/or oxidative stress in mammals” (LONZA INC., priority 2014, dated 2018).
Several values for one entry are separate records, joined by “and”; a condition that tells them apart may be missing. Equal values may be shown once.

How the values were obtained:
[1] = test system: Creatine kinase (CK); test: Serum creatine kinase (muscle damage biomarker), Example 1; type: in vivo, dog; settings: for Creatine Kinase, serum, Mean / Change in Creatine Kinase Activity, post-run minus pre-run: Ex.1, 250 mg/d; for Change in Creatine Kinase Activity, post-run minus pre-run: following 15 mile long run at 13 wk, mean ± SEM
Protocol: Blood Analysis: Serum samples were taken at three different times from each dog during the 90 day period. The blood samples were collected as follows: 1.) just prior to scanning each dog for body composition at the beginning of the study, 2.) prior to the long run on the 13th week, and 3.) following the long run on the 13th week. The serum samples were analyzed for Phosphocreatine Kinase and Canine Myoglobin to determine the amount of muscle protein leakage that occurred following the long run and TBARS and Total Antioxidant Capacity (TAC) were determined to evaluate the antioxidant status of each of the test dogs during the exercise program. The final blood sample was taken 24 hr after the long run to obtain maximum protein leakage based on previous similar types of exercise research with human athletes. Biomarkers and Assay Methods: Blood was drawn from each dog using a serum separator tube at three different times during the 90 day period: 1.) just prior to scanning each dog for body composition at the beginning of the study, 2.) prior to the long run on the 13th week, and 3.) following the long run on the 13th week. The final blood sample was taken 24 hr after the long run to obtain maximum protein leakage based on previous similar types of exercise research with human athletes. Each time after the blood was drawn it was allowed to clot before being centrifuged for 15 min at 2000 g at 4° C. Serum was aliquoted into 1.5 mL microcentrifuge tubes and stored at −80° C. until assays were ran following the end of the study. Creatine kinase (CK) and canine myoglobin were measured to determine the amount of muscle protein leakage that occurred following the long run. Thiobarbituric acid reactive substances (TBARS) and total antioxidant capacity (TAC) were measured to evaluate the antioxidant status of each of the test dogs during the exercise program. Serum samples were analyzed for total antioxidant capacity (TAC) and thiobarbituric acid reactive substances (TBARS) using commercially available colorimetric kits supplied by Cayman Chemical Company (Ann Arbor, Mich.) per manufacturer instructions. Serum canine myoglobin levels were determined using a commercially available ELISA supplied by Innovate Research (Novi, Mich.) per manufacturer instructions. Creatine kinase activity was determined colorimetrically using a commercially available kit supplied by BioVision (San Francisco, Calif.).

[2] = test system: Labrador Retrievers; test: Time of final 15 mile endurance run, Example 1 (90 day study); type: in vivo, dog; settings: Ex.1, 250 mg/d; for Final run time: 15 mile run at end of 90 day study, mean ± SEM
Protocol: Forty Labrador Retrievers were divided into two equal groups of twenty (11 males, 9 females) based on gender, body weight (“BW”), genetics, and lean mass and fed a low L-carnitine basal diet for a 90 day feeding period. The experimental dogs were fed the low L-carnitine basal for 10 days prior to the start of the study. Twenty of the Labs received 250 mg/day of L-carnitine (batch D22312) and 3.75 g of sugar and twenty of the Labs received 4 g/d of sugar. The dogs were scanned with a GE Prodigy DEXA system immediately prior to beginning of the study and the determined lean mass was utilized as a key component for helping assort the dogs equally between the control and L-carnitine group. A serum sample was obtained from each dog to determine a baseline value for blood biomarkers that were used to evaluate muscle damage and antioxidant status. The L-carnitine and control performance dogs were put through a weekly running program consisting of running sprint type shorter runs of higher intensity twice weekly (1200 yds/session increasing to 2400 yds/session over 10 wk period) and running endurance longer runs one time per wk (increasing from 5 miles/session to 10 miles per session over a 10 wk period). Each performance dog also wore the Actical activity monitor during the last endurance run. The dogs were put through a 15 mile run that included mud, water, tall grass, and swimming. The dogs were timed when they completed the course. The dogs were encouraged by kennel staff that rode along in a 4 wheel all terrain type vehicle during all of the endurance runs. […] Immediately following the 15 mile endurance run, each dog was placed in a kennel and evaluated for recovery time for body temperature (every 15 minutes for 2 hr) and heart rate (every 2 minutes for 14 minutes). Twenty four hours after test dogs ran the last 15 endurance run, post-run serum samples were taken to evaluate biomarkers for muscle damage and antioxidant status. Each test dog was also scanned with the GE Prodigy DEXA to determine body composition change that occurred during the course of the 13 wk study. Experimental Design: Forty Labrador Retrievers (labs) ranging in age from 1 to 3.5 years were incorporated into a two dietary treatment study. The two dietary treatments were based on feeding the test dogs the same low L-carnitine diet but adding 250 mg per day of L-carnitine to the L-carnitine group. Each of the L-carnitine dogs received the daily 250 mg of L-carnitine mixed with an additional 3.75 g sugar. The control dogs received 4 g of sugar each day. Twenty labs of equal gender, age, excitement level, frame size, body weight and genetic background were utilized for each of the two treatments. The labs utilized for the nutrition study were from a minimum of 6 different bitches. The lean body mass of the 40 test dogs was determined by scanning with the DEXA and the final key component utilized to assure equal groups. Prior to the start of the study, the labs were acclimated to the experimental diets for a minimum of 10 days. The labs were weighed at the beginning of the 90 day study and weighed every two weeks throughout the study. Feed consumption was determined daily by weighing feed provided and feed refusals. The quantity of food provided each dog on a daily basis was adjusted based on maintaining a minimum initial starting body weight throughout the study. […]

## C[N+](C)(C)C[C@H](O)CC(=O)[O-] [L-carnitine]
[1]; Baseline
  Creatine Kinase Least Sq Mean: 24.88 mU/mL
[1]; Baseline, F
  Creatine Kinase Least Sq Mean: 35.85 mU/mL
[1]; Baseline, M
  Creatine Kinase Least Sq Mean: 13.91 mU/mL
[1]; Baseline, both sexes
  Creatine Kinase, serum, Mean: 22.9 mU · mL
[1]; Baseline, females
  Creatine Kinase, serum, Mean: 35.8 mU · mL
[1]; Baseline, males
  Creatine Kinase, serum, Mean: 13.9 mU · mL
[1]; Post-run (24 hr after 15 mile run), both sexes
  Creatine Kinase, serum, Mean: 16.1 mU · mL
[1]; Post-run, females
  Creatine Kinase, serum, Mean: 19.9 mU · mL
[1]; Post-run, males
  Creatine Kinase, serum, Mean: 12.2 mU · mL
[1]; Pre-run (24 hr before 15 mile run), both sexes
  Creatine Kinase, serum, Mean: 7.0 mU · mL
[1]; Pre-run, females
  Creatine Kinase, serum, Mean: 6.9 mU · mL
[1]; Pre-run, males
  Creatine Kinase, serum, Mean: 7.0 mU · mL
[1]; both sexes, text: units
  Change in Creatine Kinase Activity, post-run minus pre-run: 9.3 and 9.3 ± 1.86 n = 18
[1]; females
  Change in Creatine Kinase Activity, post-run minus pre-run: 13.06 ± 2.06 n = 9
[1]; males
  Change in Creatine Kinase Activity, post-run minus pre-run: 5.54 and 5.54 ± 2.63 n = 9
[1]; Post-run
  Creatine Kinase Least Sq Mean: 16.08 mU/mL
[1]; Post-run, F
  Creatine Kinase Least Sq Mean: 19.94 mU/mL
[1]; Post-run, M
  Creatine Kinase Least Sq Mean: 12.21 mU/mL
[1]; Pre-run
  Creatine Kinase Least Sq Mean: 6.96 mU/mL
[1]; Pre-run, F
  Creatine Kinase Least Sq Mean: 6.888 mU/mL
[1]; Pre-run, M
  Creatine Kinase Least Sq Mean: 7.032 mU/mL
[1]; Treatment * Sex, F
  Creatine Kinase Least Sq Mean: 35.85 mU/mL
[1]; Treatment * Sex, M
  Creatine Kinase Least Sq Mean: 13.91 mU/mL
[1]; Treatment level, all dogs
  Creatine Kinase Least Sq Mean: 24.88 mU/mL
[1]; serum, model term
  Creatine Kinase, mixed model Estimate, term Time[Post-run-Pre-run] * Treatment[L-carnitine]: −2.544 mU/mL
  Creatine Kinase, mixed model Estimate, term Time[Post-run-Pre-run] * Treatment[L-carnitine] * Sex[F]: 1.335 mU/mL
  Creatine Kinase, mixed model Estimate, term Time[Pre-run-Baseline] * Treatment[L-carnitine]: −3.029 mU/mL
  Creatine Kinase, mixed model Estimate, term Time[Pre-run-Baseline] * Treatment[L-carnitine] * Sex[F]: −5.661 mU/mL
  Creatine Kinase, mixed model Estimate, term Treatment[L-carnitine]: 3.121 mU/mL
  Creatine Kinase, mixed model Estimate, term Treatment[L-carnitine] * Sex[F]: 5.935 mU/mL
[2]; both sexes
  Final run time: 95.84 min and 95.84 ± 1.417^A n = 19 min
[2]; females
  Final run time: 98.50 ± 3.179 n = 8 min
[2]; males
  Final run time: 93.91 ± 0.4564^A n = 11 min
[2]; both sexes vs control dogs
  15-mile timed run, minutes faster than control: 6.56 min
[2]; males vs control males
  15-mile timed run, minutes faster than control: 8.69 min
